18 substances from patent publication US10150760B2, “Compounds for use in preparing heterocyclic triazole agonists of the APJ receptor” (AMGEN INC., priority 2016, dated 2018) can be followed below.

The term EC50 denotes the concentration giving half of the maximal effect.

human APJ receptor, sequence (P35414 whole entry): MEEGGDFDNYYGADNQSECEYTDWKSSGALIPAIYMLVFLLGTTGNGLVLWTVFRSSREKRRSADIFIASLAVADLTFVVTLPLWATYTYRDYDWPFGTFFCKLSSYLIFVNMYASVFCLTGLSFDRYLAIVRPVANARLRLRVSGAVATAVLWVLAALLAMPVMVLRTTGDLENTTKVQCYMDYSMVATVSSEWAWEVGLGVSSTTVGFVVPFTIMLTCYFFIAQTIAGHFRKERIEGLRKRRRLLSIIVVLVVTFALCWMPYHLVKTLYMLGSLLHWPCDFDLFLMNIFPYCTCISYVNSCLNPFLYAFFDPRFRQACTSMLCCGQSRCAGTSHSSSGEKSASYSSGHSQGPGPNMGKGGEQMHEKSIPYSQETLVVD

This experiment concerns the target human APJ receptor (Homo sapiens (Human), UniProt P35414). Put plainly: [35S]GTPγS binding assay on membranes from CHO cells stably expressing human APJ receptor. It counts as biochemical. The following applies: read-out: Activity hAPJ SPA EC50 IP. The method in brief: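 Membranes from CHO cells stably expressing human APJ incubated with ligand, 0.2 nM [35S]GTPγS and WGA SPA beads in HEPES pH 7.5 with 5 mM MgCl2, 200 mM NaCl, 3 μM GDP, 90 min at RT. Nonspecific binding defined with 100 μM GTPγS; EC50 by non-linear regression.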
(In general: Binding of GTPγS marks nucleotide exchange on a G protein.)
Take “(1R,2S)-N-(5-((R)-2,3-dihydrobenzofuran-3-yl)-4-(2,6-dimethoxyphenyl)-4H-1,2,4-triazol-3-yl)-1-methoxy-1-(5-methylpyrimidin-2-yl)propane-2-sulfonamide or (1R,2S)-N-(5-((S)-2,3-dihydrobenzofuran-3-yl)-4-(2,6-dimethoxyphenyl)-4H-1,2,4-triazol-3-yl)-1-methoxy-1-(5-methylpyrimidin-2-yl)propane-2-sulfonamide [Example 239.0]”: the half-maximal effective concentration (EC50) was found to be 0.033 µM.
As to “(1R,2S)-N-(5-((S)-1,4-dioxan-2-yl)-4-(1-(methoxymethyl)cyclopropyl)-4H-1,2,4-triazol-3-yl)-1-(5-chloropyrimidin-2-yl)-1-methoxypropane-2-sulfonamide or (1R,2S)-N-(5-((R)-1,4-dioxan-2-yl)-4-(1-(methoxymethyl)cyclopropyl)-4H-1,2,4-triazol-3-yl)-1-(5-chloropyrimidin-2-yl)-1-methoxypropane-2-sulfonamide [Example 341.0]”, the EC50 was 1.21 µM.
Consider “(1S,2S)-1-(5-chloro-2-pyrimidinyl)-N-(4-(1,3-dimethoxy-2-propanyl)-5-((2R,5R)-5-methyltetrahydro-2-furanyl)-4H-1,2,4-triazol-3-yl)-1-(2-propanyloxy)-2-propanesulfonamide or (1S,2S)-1-(5-chloro-2-pyrimidinyl)-N-(4-(1,3-dimethoxy-2-propanyl)-5-((2S,5S)-5-methyltetrahydro-2-furanyl)-4H-1,2,4-triazol-3-yl)-1-(2-propanyloxy)-2-propanesulfonamide [Example 354.0]”, for which the EC50 worked out at 0.092 µM.
In the case of “(1S,2S)-1-(5-chloro-2-pyrimidinyl)-N-(4-(1,3-dimethoxy-2-propanyl)-5-((2R,5R)-5-methyltetrahydro-2-furanyl)-4H-1,2,4-triazol-3-yl)-1-(2-propanyloxy)-2-propanesulfonamide or (1S,2S)-1-(5-chloro-2-pyrimidinyl)-N-(4-(1,3-dimethoxy-2-propanyl)-5-((2S,5S)-5-methyltetrahydro-2-furanyl)-4H-1,2,4-triazol-3-yl)-1-(2-propanyloxy)-2-propanesulfonamide [Example 355.0]”, the EC50 came to 0.0012 µM.
Take “(1S,2S)-1-(5-chloro-2-pyrimidinyl)-N-(4-cyclopropyl-5-((2S,5S)-5-methyltetrahydro-2-furanyl)-4H-1,2,4-triazol-3-yl)-1-(2-propanyloxy)-2-propanesulfonamide or (1S,2S)-1-(5-chloro-2-pyrimidinyl)-N-(4-cyclopropyl-5-((2R,5R)-5-methyltetrahydro-2-furanyl)-4H-1,2,4-triazol-3-yl)-1-(2-propanyloxy)-2-propanesulfonamide [Example 352.0]”: the EC50 is 1.49 µM.
With “(1S,2S)-1-(5-chloro-2-pyrimidinyl)-N-(4-cyclopropyl-5-((2S,5S)-5-methyltetrahydro-2-furanyl)-4H-1,2,4-triazol-3-yl)-1-(2-propanyloxy)-2-propanesulfonamide or (1S,2S)-1-(5-chloro-2-pyrimidinyl)-N-(4-cyclopropyl-5-((2R,5R)-5-methyltetrahydro-2-furanyl)-4H-1,2,4-triazol-3-yl)-1-(2-propanyloxy)-2-propanesulfonamide [Example 353.0]”, the EC50 is 0.1 µM.
For the substance “(1S,2S)-1-(5-chloropyrimidin-2-yl)-1-isopropoxy-N-(4-(1-(methoxymethyl)cyclopropyl)-5-((R)-tetrahydrofuran-3-yl)-4H-1,2,4-triazol-3-yl)propane-2-sulfonamide or (1S,2S)-1-(5-chloropyrimidin-2-yl)-1-isopropoxy-N-(4-(1-(methoxymethyl)cyclopropyl)-5-((S)-tetrahydrofuran-3-yl)-4H-1,2,4-triazol-3-yl)propane-2-sulfonamide [Example 319.0]”, the EC50 amounted to 0.13 µM.
For “(1S,2S)-1-(5-chloropyrimidin-2-yl)-1-isopropoxy-N-(4-(1-(methoxymethyl)cyclopropyl)-5-((R)-tetrahydrofuran-3-yl)-4H-1,2,4-triazol-3-yl)propane-2-sulfonamide or (1S,2S)-1-(5-chloropyrimidin-2-yl)-1-isopropoxy-N-(4-(1-(methoxymethyl)cyclopropyl)-5-((S)-tetrahydrofuran-3-yl)-4H-1,2,4-triazol-3-yl)propane-2-sulfonamide [Example 320.0]”, the EC50 is 0.045 µM.
“(1S,2S)-1-isopropoxy-1-(5-methylpyrazin-2-yl)-N-(4-(tetrahydro-2H-pyran-4-yl)-5-((R)-tetrahydrofuran-2-yl)-4H-1,2,4-triazol-3-yl)propane-2-sulfonamide or (1S,2S)-1-isopropoxy-1-(5-methylpyrazin-2-yl)-N-(4-(tetrahydro-2H-pyran-4-yl)-5-((S)-tetrahydrofuran-2-yl)-4H-1,2,4-triazol-3-yl)propane-2-sulfonamide [Example 260.0]”: the half-maximal effective concentration (EC50) is greater than 4.2 µM.
“(1S,2S)-1-isopropoxy-1-(5-methylpyrazin-2-yl)-N-(4-(tetrahydro-2H-pyran-4-yl)-5-((R)-tetrahydrofuran-2-yl)-4H-1,2,4-triazol-3-yl)propane-2-sulfonamide or (1S,2S)-1-isopropoxy-1-(5-methylpyrazin-2-yl)-N-(4-(tetrahydro-2H-pyran-4-yl)-5-((S)-tetrahydrofuran-2-yl)-4H-1,2,4-triazol-3-yl)propane-2-sulfonamide [Example 261.0]”: the EC50 came to 0.15 µM.
Then “(1S,2S)-1-isopropoxy-1-(5-methylpyrazin-2-yl)-N-(5-((2S,5S)-5-methyltetrahydrofuran-2-yl)-4-(tetrahydro-2H-pyran-4-yl)-4H-1,2,4-triazol-3-yl)propane-2-sulfonamide or (1S,2S)-1-isopropoxy-1-(5-methylpyrazin-2-yl)-N-(5-((2R,5R)-5-methyltetrahydrofuran-2-yl)-4-(tetrahydro-2H-pyran-4-yl)-4H-1,2,4-triazol-3-yl)propane-2-sulfonamide [Example 262.0]”, with greater than 4.2 µM.
On to “(1S,2S)-1-isopropoxy-1-(5-methylpyrazin-2-yl)-N-(5-((2S,5S)-5-methyltetrahydrofuran-2-yl)-4-(tetrahydro-2H-pyran-4-yl)-4H-1,2,4-triazol-3-yl)propane-2-sulfonamide or (1S,2S)-1-isopropoxy-1-(5-methylpyrazin-2-yl)-N-(5-((2R,5R)-5-methyltetrahydrofuran-2-yl)-4-(tetrahydro-2H-pyran-4-yl)-4H-1,2,4-triazol-3-yl)propane-2-sulfonamide [Example 263.0]”, for which the EC50 came out at 0.46 µM.
Consider “(1S,2S)-N-(4-(1,3-dimethoxy-2-propanyl)-5-((2R,5R)-5-methyltetrahydro-2-furanyl)-4H-1,2,4-triazol-3-yl)-1-(5-fluoro-2-pyrimidinyl)-1-(2-propanyloxy)-2-propanesulfonamide or (1S,2S)-N-(4-(1,3-dimethoxy-2-propanyl)-5-((2S,5S)-5-methyltetrahydro-2-furanyl)-4H-1,2,4-triazol-3-yl)-1-(5-fluoro-2-pyrimidinyl)-1-(2-propanyloxy)-2-propanesulfonamide [Example 360.0]”, for which the EC50 amounted to 0.31 µM.
In the case of “(1S,2S)-N-(4-(1,3-dimethoxy-2-propanyl)-5-((2R,5R)-5-methyltetrahydro-2-furanyl)-4H-1,2,4-triazol-3-yl)-1-(5-fluoro-2-pyrimidinyl)-1-(2-propanyloxy)-2-propanesulfonamide or (1S,2S)-N-(4-(1,3-dimethoxy-2-propanyl)-5-((2S,5S)-5-methyltetrahydro-2-furanyl)-4H-1,2,4-triazol-3-yl)-1-(5-fluoro-2-pyrimidinyl)-1-(2-propanyloxy)-2-propanesulfonamide [Example 361.0]”, the EC50 amounted to 0.01 µM.
Consider “(1S,2S)-N-(4-(1,3-dimethoxy-2-propanyl)-5-((2R,5R)-5-methyltetrahydro-2-furanyl)-4H-1,2,4-triazol-3-yl)-1-(5-methoxy-2-pyrimidinyl)-1-(2-propanyloxy)-2-propanesulfonamide or (1S,2S)-N-(4-(1,3-dimethoxy-2-propanyl)-5-((2S,5S)-5-methyltetrahydro-2-furanyl)-4H-1,2,4-triazol-3-yl)-1-(5-methoxy-2-pyrimidinyl)-1-(2-propanyloxy)-2-propanesulfonamide [Example 362.0]”, for which the EC50 was found to be 0.39 µM.
In the case of “(1S,2S)-N-(4-(1,3-dimethoxy-2-propanyl)-5-((2R,5R)-5-methyltetrahydro-2-furanyl)-4H-1,2,4-triazol-3-yl)-1-(5-methoxy-2-pyrimidinyl)-1-(2-propanyloxy)-2-propanesulfonamide or (1S,2S)-N-(4-(1,3-dimethoxy-2-propanyl)-5-((2S,5S)-5-methyltetrahydro-2-furanyl)-4H-1,2,4-triazol-3-yl)-1-(5-methoxy-2-pyrimidinyl)-1-(2-propanyloxy)-2-propanesulfonamide [Example 363.0]”, the EC50 amounted to 0.028 µM.
For the substance “(1S,2S)-N-(4-(1,3-dimethoxy-2-propanyl)-5-((2R,5R)-5-methyltetrahydro-2-furanyl)-4H-1,2,4-triazol-3-yl)-1-(5-methyl-2-pyrazinyl)-1-(2-propanyloxy)-2-propanesulfonamide or (1S,2S)-N-(4-(1,3-dimethoxy-2-propanyl)-5-((2S,5S)-5-methyltetrahydro-2-furanyl)-4H-1,2,4-triazol-3-yl)-1-(5-methyl-2-pyrazinyl)-1-(2-propanyloxy)-2-propanesulfonamide [Example 364.0]”, the EC50 worked out at 0.069 µM.
Under “(1S,2S)-N-(4-(1,3-dimethoxy-2-propanyl)-5-((2R,5R)-5-methyltetrahydro-2-furanyl)-4H-1,2,4-triazol-3-yl)-1-(5-methyl-2-pyrazinyl)-1-(2-propanyloxy)-2-propanesulfonamide or (1S,2S)-N-(4-(1,3-dimethoxy-2-propanyl)-5-((2S,5S)-5-methyltetrahydro-2-furanyl)-4H-1,2,4-triazol-3-yl)-1-(5-methyl-2-pyrazinyl)-1-(2-propanyloxy)-2-propanesulfonamide [Example 365.0]” stands 0.072 µM.
